This is an account of results in US9732075B2, “Benzimidazole-proline derivatives” (IDORSIA PHARMACEUTICALS LTD, priority 2012, dated 2017).

The target in one experiment is human orexin-2 receptor (Homo sapiens (Human), UniProt O43614). Nature of the experiment: In vitro assay: intracellular calcium measurements (FLIPR), antagonistic activity. It counts as cell-based. The settings on record: CHO cells expressing human orexin-2 receptor, orexin-A agonist, geometric mean, read-out: IC50 Ox2. The method, boiled down:
(§1)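 Orexin-A-evoked calcium rise (3 nM final, roughly EC70) was recorded with fluo-4 in recombinant CHO cells, human receptor subtype 1 or 2.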
A general note: A change in cytosolic calcium serves as a functional read-out for many receptors and channels.

A further experiment concerns the target human orexin-1 receptor (Homo sapiens (Human), UniProt O43613). The experiment is described as above. In kind it is cell-based. The settings on record: CHO cells expressing human orexin-1 receptor, orexin-A agonist, geometric mean, read-out: IC50 Ox1. The method, boiled down: as §1

The structures appear in SMILES notation. pIC50: −log10 of the molar value.

human orexin-2 receptor, sequence (O43614 whole entry): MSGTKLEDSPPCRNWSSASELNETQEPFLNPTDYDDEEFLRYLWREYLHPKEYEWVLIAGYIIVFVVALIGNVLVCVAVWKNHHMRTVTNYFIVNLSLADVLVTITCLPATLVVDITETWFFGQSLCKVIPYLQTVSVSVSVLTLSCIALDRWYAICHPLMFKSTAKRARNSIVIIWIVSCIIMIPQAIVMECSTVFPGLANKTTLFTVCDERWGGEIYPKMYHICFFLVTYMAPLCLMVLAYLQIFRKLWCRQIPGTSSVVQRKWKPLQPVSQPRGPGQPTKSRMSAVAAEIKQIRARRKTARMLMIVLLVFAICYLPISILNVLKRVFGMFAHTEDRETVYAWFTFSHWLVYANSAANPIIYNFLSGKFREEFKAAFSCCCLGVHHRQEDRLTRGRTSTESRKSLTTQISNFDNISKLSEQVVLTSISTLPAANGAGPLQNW
human orexin-1 receptor, sequence (O43613 whole entry): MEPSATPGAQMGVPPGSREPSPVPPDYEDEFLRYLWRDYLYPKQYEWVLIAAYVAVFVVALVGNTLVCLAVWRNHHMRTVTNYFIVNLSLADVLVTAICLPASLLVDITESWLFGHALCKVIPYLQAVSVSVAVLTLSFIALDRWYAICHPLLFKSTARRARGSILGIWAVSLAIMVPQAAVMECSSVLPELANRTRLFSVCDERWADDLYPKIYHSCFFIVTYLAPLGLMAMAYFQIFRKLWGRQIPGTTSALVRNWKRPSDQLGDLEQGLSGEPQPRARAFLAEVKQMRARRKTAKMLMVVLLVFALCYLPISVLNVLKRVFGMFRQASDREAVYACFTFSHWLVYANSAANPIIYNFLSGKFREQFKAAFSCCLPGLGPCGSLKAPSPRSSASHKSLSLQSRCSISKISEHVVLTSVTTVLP

As a reminder, the pIC50 is the IC50 on a negative log10 scale, so that one unit is a factor of ten. On to `C=C1C[C@@H](c2nc3cc(Cl)c(C(F)(F)F)cc3[nH]2)N(C(=O)c2nc(C)ccc2-n2nccn2)C1` [Ex. 6.190], for which the pIC50 on human orexin-2 receptor was 8.05; on human orexin-1 receptor it was 8.00.

For `C=C1C[C@@H](c2nc3cc(C)c(C)cc3[nH]2)N(C(=O)c2c(F)cccc2-n2nccn2)C1` [Ex. 6.191], the pIC50 at human orexin-2 receptor is 8.15; at human orexin-1 receptor it was 6.87.

For `C=C1C[C@@H](c2nc3cc(C)c(C)cc3[nH]2)N(C(=O)c2cc(F)ccc2-n2nccn2)C1` [Ex. 6.192], the values for the pIC50 at human orexin-2 receptor and on human orexin-1 receptor were 8.15 and 7.32, respectively.

Turning to `C=C1C[C@@H](c2nc3cc(C)c(C)cc3[nH]2)N(C(=O)c2cc(Cl)ccc2-n2nccn2)C1` [Ex. 6.193], the values for the pIC50 at human orexin-2 receptor and at human orexin-1 receptor were 8.40 and 7.39, respectively.

`C=C1C[C@@H](c2nc3cc(C)c(C)cc3[nH]2)N(C(=O)c2ccccc2-n2nccn2)C1` [Ex. 6.194]: the pIC50 on human orexin-2 receptor is 8.30; at human orexin-1 receptor it was 7.29.

For `C=C1C[C@@H](c2nc3cc(C)c(C)cc3[nH]2)N(C(=O)c2c(-n3nccn3)ccc(OC)c2F)C1` [Ex. 6.195], the negative logarithm of the IC50 (pIC50) at human orexin-2 receptor was 7.96; on human orexin-1 receptor it was 7.37.

In the case of `C=C1C[C@@H](c2nc3cc(C)c(C)cc3[nH]2)N(C(=O)c2c(-n3nccn3)ccc(C)c2F)C1` [Ex. 6.196], the negative logarithm of the IC50 (pIC50) at human orexin-2 receptor is 7.92; on human orexin-1 receptor, 7.23.

Regarding `C=C1C[C@@H](c2nc3cc(C)c(C)cc3[nH]2)N(C(=O)c2cc(C)c(C)cc2-n2nccn2)C1` [Ex. 6.197], the negative logarithm of the IC50 (pIC50) on human orexin-2 receptor was 8.70; at human orexin-1 receptor it was 8.22.

On to `C=C1C[C@@H](c2nc3cc(C)c(C)cc3[nH]2)N(C(=O)c2ccc(C)cc2-n2nccn2)C1` [Ex. 6.198], for which the negative-log IC50 (pIC50) on human orexin-2 receptor is 8.52; on human orexin-1 receptor, 7.92.

In the case of `C=C1C[C@@H](c2nc3cc(C)c(C)cc3[nH]2)N(C(=O)c2c(C)cccc2-n2nccn2)C1` [Ex. 6.199], the negative-log IC50 (pIC50) on human orexin-2 receptor is 8.22; on human orexin-1 receptor, 6.84.

Consider `C=C1C[C@@H](c2nc3cc(C)c(C)cc3[nH]2)N(C(=O)c2cc(OC)c(OC)cc2-n2nccn2)C1` [Ex. 6.200], for which the pIC50 at human orexin-2 receptor was 8.00; on human orexin-1 receptor, 7.24.

Take `C=C1C[C@@H](c2nc3cc(C)c(C)cc3[nH]2)N(C(=O)c2cc(C)ccc2-n2cccn2)C1` [Ex. 6.201]: the pIC50 is 7.60 at human orexin-2 receptor and 6.83 on human orexin-1 receptor.

`C=C1C[C@@H](c2nc3cc(C)c(C)cc3[nH]2)N(C(=O)c2nc(C)ccc2-n2nccn2)C1` [Ex. 6.202]: the pIC50 is 7.89 at human orexin-2 receptor and 7.05 on human orexin-1 receptor.

Regarding `COc1ccc(-n2nccn2)c(C(=O)N2C[C@H](OC)C[C@H]2c2nc3ccc(Cl)c(C)c3n2C)c1` [Ex. 7.1], the pIC50 on human orexin-2 receptor is 6.79; on human orexin-1 receptor, 7.80.

For the compound `C=C1C[C@@H](c2nc3cc(C)c(C)cc3n2C)N(C(=O)c2cc(C)ccc2-n2nccn2)C1` [Ex. 7.2], the figures for the negative-log IC50 (pIC50) at human orexin-2 receptor and on human orexin-1 receptor were 7.16 and 6.38, respectively.

On to `Cc1ccc(-n2nccn2)c(C(=O)N2CCC[C@@]2(C)c2nc3c(C)c(Cl)ccc3n2C)c1` [Ex. 7.3], for which the pIC50 was 8.52 on human orexin-2 receptor and 9.00 on human orexin-1 receptor.

For `Cc1nc(C(=O)N2CCC[C@@]2(C)c2nc3c(C)cccc3n2C)c(-c2cccc(Cl)c2)s1` [Ex. 7.5], the pIC50 on human orexin-2 receptor was 8.70; on human orexin-1 receptor it was 8.05.

For `CCn1c([C@]2(C)CCCN2C(=O)c2nc(C)sc2-c2cccc(Cl)c2)nc2c(C)cccc21` [Ex. 7.6], the pIC50 was 8.22 on human orexin-2 receptor and 8.30 at human orexin-1 receptor.

In the case of `Cc1nc(C(=O)N2CCC[C@@]2(C)c2nc3c(C)c(Cl)ccc3n2C)c(-c2ccccc2)s1` [Ex. 7.7], the pIC50 was 8.52 on human orexin-2 receptor and 8.70 on human orexin-1 receptor.

Consider `CCn1c([C@]2(C)CCCN2C(=O)c2nc(C)sc2-c2ccccc2)nc2c(C)c(Cl)ccc21` [Ex. 7.8], for which the negative-log IC50 (pIC50) at human orexin-2 receptor was 8.40; on human orexin-1 receptor, 8.70.

For `COc1cc2nc([C@]3(C)CCCN3C(=O)c3cc(C)ccc3-n3nccn3)n(C)c2cc1OC` [Ex. 7.9], the pIC50 at human orexin-2 receptor and at human orexin-1 receptor was 7.55 throughout.

Consider `CCn1c([C@]2(C)CCCN2C(=O)c2cc(C)ccc2-n2nccn2)nc2cc(OC)c(OC)cc21` [Ex. 7.10], for which the values for the pIC50 at human orexin-2 receptor and on human orexin-1 receptor were 7.38 and 7.48, respectively.

In the case of `Cc1ccc(C(=O)N2CCC[C@@]2(C)c2nc3cc(C)c(C)cc3n2C)c(-n2nccn2)c1` [Ex. 7.11], the negative-log IC50 (pIC50) on human orexin-2 receptor is 6.14; at human orexin-1 receptor, 7.77.

Turning to `CCn1c([C@]2(C)CCCN2C(=O)c2ccc(C)cc2-n2nccn2)nc2cc(C)c(C)cc21` [Ex. 7.12], the pIC50 at human orexin-2 receptor was 7.28; on human orexin-1 receptor, 7.82.

Consider `COc1cc2nc([C@]3(C)CCCN3C(=O)c3cc(C)c(C)cc3-n3nccn3)n(C)c2cc1OC` [Ex. 7.13], for which the negative-log IC50 (pIC50) at human orexin-2 receptor was 7.31; at human orexin-1 receptor, 7.68.

As to `CCn1c([C@]2(C)CCCN2C(=O)c2cc(C)c(C)cc2-n2nccn2)nc2cc(OC)c(OC)cc21` [Ex. 7.14], the negative-log IC50 (pIC50) is 7.30 on human orexin-2 receptor and 7.64 at human orexin-1 receptor.

Turning to `Cc1ccc(-c2ccc(F)cc2)c(C(=O)N2CCC[C@@]2(C)c2nc3cc(C)c(C)cc3n2C)c1` [Ex. 7.15], the values for the negative logarithm of the IC50 (pIC50) at human orexin-2 receptor and on human orexin-1 receptor were 7.19 and 7.96, respectively.

In the case of `CCn1c([C@]2(C)CCCN2C(=O)c2cc(C)ccc2-c2ccc(F)cc2)nc2cc(C)c(C)cc21` [Ex. 7.16], the values for the pIC50 on human orexin-2 receptor and on human orexin-1 receptor were 7.68 and 8.10, respectively.

`Cc1cc(C(=O)N2CCC[C@@]2(C)c2nc3cc(C)c(C)cc3n2C)c(-n2nccn2)cc1C` [Ex. 7.17]: the figures for the pIC50 on human orexin-2 receptor and at human orexin-1 receptor were 7.72 and 8.40, respectively.

For the compound `Cc1ccc(-n2nccn2)c(C(=O)N2CCC[C@@]2(C)c2nc3c(C)c(Cl)ccc3n2C)n1` [Ex. 7.18], the pIC50 at human orexin-2 receptor is 8.40; at human orexin-1 receptor, 9.00.

Consider `Cc1c(Cl)ccc2c1nc([C@]1(C)CCCN1C(=O)c1ccccc1-n1nccn1)n2C` [Ex. 7.19], for which the values for the pIC50 at human orexin-2 receptor and on human orexin-1 receptor were 8.10 and 8.30, respectively.

On to `CCn1c([C@]2(C)CCCN2C(=O)c2cc(C)ccc2-n2nccn2)nc2c(C)c(Cl)ccc21` [Ex. 7.21], for which the negative-log IC50 (pIC50) on human orexin-2 receptor was 8.70; at human orexin-1 receptor, 9.00.

Regarding `Cc1c(Cl)ccc2c1nc([C@]1(C)CCCN1C(=O)c1cc(Cl)ccc1-n1nccn1)n2C` [Ex. 7.22], the pIC50 on human orexin-2 receptor is 8.40; at human orexin-1 receptor, 9.00.

In the case of `COc1ccc(-n2nccn2)c(C(=O)N2CCC[C@@]2(C)c2nc3c(C)c(Cl)ccc3n2C)c1` [Ex. 7.23], the results for the pIC50 on human orexin-2 receptor and at human orexin-1 receptor were 8.52 and 9.00, respectively.

In the case of `COc1cc2nc([C@]3(C)CCCN3C(=O)c3cc(Cl)ccc3-n3nccn3)n(C)c2cc1OC` [Ex. 7.24], the pIC50 at human orexin-2 receptor and on human orexin-1 receptor was 7.48 in each case.

`Cc1cccc(-c2ccc(C)cc2C(=O)N2CCC[C@@]2(C)c2nc3cc(C)c(C)cc3n2C)c1` [Ex. 7.25]: the pIC50 was 7.74 at human orexin-2 receptor and 7.82 on human orexin-1 receptor.

Take `Cc1cccc(-c2ccc(C)cc2C(=O)N2CCC[C@@]2(C)c2nc3cc(C)c(C)cc3n2CC2CC2)c1` [Ex. 7.26]: the results for the negative logarithm of the IC50 (pIC50) on human orexin-2 receptor and at human orexin-1 receptor were 7.27 and 7.38, respectively.

For the compound `CCn1c([C@]2(C)CCCN2C(=O)c2cc(C)ccc2-c2cccc(C)c2)nc2cc(C)c(C)cc21` [Ex. 7.27], the negative logarithm of the IC50 (pIC50) was 7.77 on human orexin-2 receptor and 7.64 on human orexin-1 receptor.

On to `Cc1cccc(-c2ccc(C)cc2C(=O)N2CCC[C@@]2(C)c2nc3cc(C)c(C)cc3n2CCF)c1` [Ex. 7.28], for which the negative-log IC50 (pIC50) is 7.72 at human orexin-2 receptor and 7.85 on human orexin-1 receptor.
